# Laboratory results: ChEMBL document CHEMBL4422633, “Antioxidant-Inspired Drug Discovery: Antitumor Metabolite Is Formed in Situ from a Hydroxycinnamic Acid Derivative upon Free-Radical Scavenging” (J Med Chem, 2019)
# Activity calls are given as the source filed them. The calls are words filed in the database; no cut-off is given here.
# How the values were obtained:
# [1] = biological target: T1, Serine/threonine-protein kinase Chk1 (Homo sapiens) (UniProt O14757); assay: Inhibition of CHK1 phosphorylation at S345 in human MCF7 cells at 10 uM pretreated for 30 mins followed by 10 J/m'2 irradiation and measured after 1 hr by Western blot analysis; type: cell-based
# T1 sequence (whole entry): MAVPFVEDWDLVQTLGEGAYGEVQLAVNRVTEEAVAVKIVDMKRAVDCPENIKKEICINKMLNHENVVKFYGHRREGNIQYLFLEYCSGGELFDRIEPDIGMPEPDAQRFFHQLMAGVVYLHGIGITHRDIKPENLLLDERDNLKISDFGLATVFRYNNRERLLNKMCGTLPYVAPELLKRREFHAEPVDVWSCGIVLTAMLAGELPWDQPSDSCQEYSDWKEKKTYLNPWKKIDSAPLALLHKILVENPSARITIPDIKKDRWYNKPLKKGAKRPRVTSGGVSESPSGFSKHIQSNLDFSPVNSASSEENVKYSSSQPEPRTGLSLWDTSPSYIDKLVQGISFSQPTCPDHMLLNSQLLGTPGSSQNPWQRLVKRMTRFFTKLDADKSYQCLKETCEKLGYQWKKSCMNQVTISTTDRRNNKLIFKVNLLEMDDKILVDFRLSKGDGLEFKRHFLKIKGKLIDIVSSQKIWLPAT
# [2] = test system: NCI-H661; assay: Induction of apoptosis in human NCI-H661 cells assessed as late apoptotic cells at 10 uM after 24 hrs by Annexin V/propidium iodide-staining based flow cytometry (reference value: 0.95 +/- 0.03%); type: functional
# [3] = test system: HaCaT; assay: Induction of DNA damage response in human HaCaT cells assessed as increase in H2AX expression at 10 uM after 24 hrs by alexa fluor 488-staining based flow cytometry; type: cell-based
# [4] = test system: A549; assay: Induction of DNA damage response in human A549 cells assessed as increase in H2AX expression at 10 uM after 24 hrs by alexa fluor 488-staining based flow cytometry; type: functional, cell-based
# [5] = test system: NCI-H661; assay: Induction of apoptosis in human NCI-H661 cells assessed as necrotic cells at 10 uM after 24 hrs by Annexin V/propidium iodide-staining based flow cytometry (reference value: 2.58 +/- 0.05%); type: functional
# [6] = Induction of apoptosis in human NCI-H460/R cells transfected with MDR assessed as early apoptotic cells at 10 uM after 24 hrs by Annexin V/propidium iodide-staining based flow cytometry (reference value: 0.22 +/- 0.01%); type: functional
# [7] = Cytotoxicity against human NCI-H460/R cells transfected with MDR assessed as reduction in cell viability after 72 hrs by MTT assay; type: functional, cell-based; conditions: NCI-H460, 72 h
# [8] = test system: HaCaT; assay: Induction of apoptosis in human HaCaT cells assessed as early apoptotic cells at 10 uM after 24 hrs by Annexin V/propidium iodide-staining based flow cytometry (reference value: 0.23 +/- 0.01%); type: cell-based
# [9] = test system: HaCaT; assay: Induction of apoptosis in human HaCaT cells assessed as necrotic cells at 10 uM after 24 hrs by Annexin V/propidium iodide-staining based flow cytometry (reference value: 1.88 +/- 0.02%); type: cell-based
# [10] = test system: HeLa; assay: Cytotoxicity against human HeLa cells assessed as reduction in cell viability after 72 hrs by MTT assay; type: functional, cell-based
compound,measurement,setting,value
COC(=O)/C=C/C1(O)C=CC(=O)C=C1,inhibition,[1],Active
same,Activity,[2],9.57%
same,Activity,[3],Non-Toxic
same,Activity,[4],Active
same,Activity,[5],44.82%
same,Activity,[6],0.12%
same,IC50,[7],2.06 µM
same,Activity,[8],0.44%
same,Activity,[9],5.21%
same,IC50,[10],9.85 µM
